Where a SMILES comes first, the peptide text is derived from it. The star is where a group is joined. X6 = O=C(/C=C\c1ccc([N+](=O)[O-])cc1)*; X15 = O=C(/C=C\c1ccc(C(F)(F)F)cc1)*; X30 = O=C(CCc1ccc(C(F)(F)F)cc1)*; X21 = O=C(/C=C\c1ccc(Br)cc1)*; Boc = CC(C)(C)OC(=O)*
Molecular target: Gastrin/cholecystokinin type B receptor (Cavia porcellus)
Assay: Inhibition of specific binding of [125I]BH-CCK-8 in guinea pig cortex

| SMILES | IC50 [µM] |
| --- | --- |
| CC(C)(C)OC(=O)N[C@@H](Cc1c[nH]c2ccccc12)C(=O)N[C@@H](CCCCNC(=O)/C=C\c1ccc([N+](=O)[O-])cc1)C(=O)N[C@@H](CC(=O)O)C(=O)N[C@@H](Cc1ccccc1)C(N)=O [3-{2-[2-tert-Butoxycarbonylamino-3-(1H-indol-3-yl)-propionylamino]-6-[3-(4-nitro-phenyl)-acryloylamino]-hexanoylamino}-N-(1-carbamoyl-2-phenyl-ethyl)-succinamic acid; hydrate] (Boc-WK(X6)DF-NH2) | 4.4 |
| CC(C)(C)OC(=O)N[C@@H](Cc1c[nH]c2ccccc12)C(=O)N[C@@H](CCCCNC(=O)/C=C\c1ccc(C(F)(F)F)cc1)C(=O)N[C@@H](CC(=O)O)C(=O)N[C@@H](Cc1ccccc1)C(N)=O [3-{2-[2-tert-Butoxycarbonylamino-3-(1H-indol-3-yl)-propionylamino]-6-[3-(4-trifluoromethyl-phenyl)-acryloylamino]-hexanoylamino}-N-(1-carbamoyl-2-phenyl-ethyl)-succinamic acid; hydrate] (Boc-WK(X15)DF-NH2) | 5.3 |
| CC(C)(C)OC(=O)N[C@@H](Cc1c[nH]c2ccccc12)C(=O)N[C@@H](CCCCNC(=O)CCc1ccc(C(F)(F)F)cc1)C(=O)N[C@@H](CC(=O)O)C(=O)N[C@@H](Cc1ccccc1)C(N)=O [3-{2-[2-tert-Butoxycarbonylamino-3-(1H-indol-3-yl)-propionylamino]-6-[3-(4-trifluoromethyl-phenyl)-propionylamino]-hexanoylamino}-N-(1-carbamoyl-2-phenyl-ethyl)-succinamic acid; hydrate] (Boc-WK(X30)DF-NH2) | 19 |
| CC(C)(C)OC(=O)N[C@@H](Cc1c[nH]c2ccccc12)C(=O)N[C@@H](CCCCNC(=O)/C=C\c1ccc(Br)cc1)C(=O)N[C@@H](CC(=O)O)C(=O)N[C@@H](Cc1ccccc1)C(N)=O [3-{6-[3-(4-Bromo-phenyl)-acryloylamino]-2-[2-tert-butoxycarbonylamino-3-(1H-indol-3-yl)-propionylamino]-hexanoylamino}-N-(1-carbamoyl-2-phenyl-ethyl)-succinamic acid; hydrate.NH4OH] (Boc-WK(X21)DF-NH2) | 5.1 |

Reference: BindingDB's records for doi:10.1021/jm00089a010 (Abbott Laboratories, 1992)
